Assay in all cases: Drug affinity chromatography with c-ponatinib and LC-MS/MS (ponatinib interactome)
Holding throughout (format): binding

Test [1] addresses T1, proteins of U2OS cell lysate (Homo sapiens, UniProt Q99460).
T1 construct: Proteins enriched by c-ponatinib from U2OS cell lysate; endogenous in cells; host or cells: U2OS cell lysate
As to the method:
(§1) Drug affinity chromatography
(§2) U2OS cells were grown until approximately 80% confluent before being pelleted and washed with PBS. Cell pellets were subsequently lysed in buffer A (50 mM Tris pH 7.5, 0.8% v/v NP-40, 5% v/v glycerol, 1.5 mM MgCl2, 100 mM NaCl, 25 mM NaF, 1 mM Na3VO4, 1 mM PMSF, 1mM DTT, 10 μg/mL TLCK, 1 μg/ml Leupeptin, 1 μg/ml Aprotinin, 1 μg/ml soy bean trypsin) and lysates prepared […]
(§3) concentration was determined and lysates stored at -80 °C.
(§4) Briefly, 100 μl of bead slurry (50% in isopropanol) were used for each pulldown experiment. Beads were washed with DMSO (3 × 500 μl), and resuspended in DMSO (50 μl), to which the amine (0.025 μmol) and triethylamine (0.75 μl) were added. The beads were incubated at room temperature for 16 h, and depletion of free amine from the supernatant was determined by LC-MS analysis. Ethanolamine (2.5 μl) was then added to block any unreacted NHS sites, and the beads incubated for a further 16 h. Derivatized beads were then washed with DMSO (3 × 500 μl), buffer A (3 × 1 ml), and incubated with cell lysates (2 mg of protein per pulldown, at 6 […]
(§5) Beads and treated lysates were incubated for 2 h at 4 °C before washing with buffer A (5 ml), Buffer B (50 mM HEPES pH 7.5, 100 mM NaCl, 500 μM EDTA, 2.5 ml), and eluted with formic acid (100 mM, 250 μl). Samples were neutralized with triethylammoniumbicarbonate (TEAB, 1M, 62.5 μl) and stored at -20 °C until preparation for proteomic analysis.
(§6) Samples were reduced with DTT (10 mM final concentration) for 30 min at room temperature, alkylated with iodoacetamide (55 mM final concentration) for 30 min at room temperature, diluted to 300 μl with TEAB, and incubated with trypsin (6 μl, 0.2 mg/ml) overnight at 37 °C. The digests were desalted using SEPAC lite columns (Waters), eluted with 69 % v/v MeCN, 0.1 % v/v FA in H2O (1 ml) and dried in vacuo. Dried peptides were stored at -20 °C before resuspension in 2 % v/v MeCN, 1 % v/v FA in H2O (20 μl) for LC-MS/MS analysis.
(§7) LC-MS/MS data acquisition
(§8) Mass spectrometry data was acquired at the Discovery Proteomics Facility (University of Oxford).
(§9) Digested samples were analyzed by nano-UPLC–MS/MS using a Dionex Ultimate 3000 nano UPLC with EASY spray column (75 μm × 500 mm, 2 μm particle size, Thermo Fisher Scientific) with a 60 min gradient of 0.1 % (v/v) formic acid in 5 % (v/v) DMSO to 0.1 % (v/v) formic acid with 35 % (v/v) acetonitrile in 5 % (v/v) DMSO at a flow rate of approximately 250 nl min−1 (600 bar per 40 °C column temperature). Mass spectrometry data was acquired either with an Orbitrap Q Exactive (Survey scans acquired at a resolution of 70,000 @ 200m/z and the 15 most abundant precursors were selected for HCD fragmentation), or an Orbitrap Q Exactive High Field (HF) instrument (survey scans were […]

Test [2] has as its target T2, proteins of U2OS cell lysate (Homo sapiens, UniProt P49006).
T2 construct: Proteins enriched by c-ponatinib from U2OS cell lysate; endogenous in cells; host or cells: U2OS cell lysate
As to the method:
as §1, §2, §3, §4, §5, §6, §7, §8, §9

In test [3] the target is T3, proteins of U2OS cell lysate (Homo sapiens, UniProt Q9Y230).
T3 construct: Proteins enriched by c-ponatinib from U2OS cell lysate; endogenous in cells; host or cells: U2OS cell lysate
As to the method: as §1, §2, §3, §4, §5, §6, §7, §8, §9

In test [4] the target is T4, proteins of U2OS cell lysate (Homo sapiens, UniProt Q16891).
T4 construct: Proteins enriched by c-ponatinib from U2OS cell lysate; endogenous in cells; host or cells: U2OS cell lysate
The procedure:
as §1, §2, §3, §4, §5, §6, §7, §8, §9

For test [5], the target named is T5, proteins of U2OS cell lysate (Homo sapiens, UniProt Q9UQ35).
T5 construct: Proteins enriched by c-ponatinib from U2OS cell lysate; endogenous in cells; host or cells: U2OS cell lysate
As to the method:
as §1, §2, §3, §4, §5, §6, §7, §8, §9

Test [6] addresses T6, proteins of U2OS cell lysate (Homo sapiens, UniProt Q9UBM7).
T6 construct: Proteins enriched by c-ponatinib from U2OS cell lysate; endogenous in cells; host or cells: U2OS cell lysate
The procedure:
as §1, §2, §3, §4, §5, §6, §7, §8, §9

The target in test [7] is T7, proteins of U2OS cell lysate (Homo sapiens, UniProt Q9UBN7).
T7 construct: Proteins enriched by c-ponatinib from U2OS cell lysate; endogenous in cells; host or cells: U2OS cell lysate
The procedure: as §1, §2, §3, §4, §5, §6, §7, §8, §9

Test [8] deals with T8, proteins of U2OS cell lysate (Homo sapiens, UniProt P12814).
T8 construct: Proteins enriched by c-ponatinib from U2OS cell lysate; endogenous in cells; host or cells: U2OS cell lysate
As to the method:
as §1, §2, §3, §4, §5, §6, §7, §8, §9

The target in test [9] is T9, proteins of U2OS cell lysate (Homo sapiens, UniProt Q99613).
T9 construct: Proteins enriched by c-ponatinib from U2OS cell lysate; endogenous in cells; host or cells: U2OS cell lysate
The procedure:
as §1, §2, §3, §4, §5, §6, §7, §8, §9

Test [10] addresses T10, proteins of U2OS cell lysate (Homo sapiens, UniProt P09619).
T10 construct: Proteins enriched by c-ponatinib from U2OS cell lysate; endogenous in cells; host or cells: U2OS cell lysate
As to the method: as §1, §2, §3, §4, §5, §6, §7, §8, §9

Test [11] concerns the target T11, proteins of U2OS cell lysate (Homo sapiens, UniProt P30049).
T11 construct: Proteins enriched by c-ponatinib from U2OS cell lysate; endogenous in cells; host or cells: U2OS cell lysate
As to the method: as §1, §2, §3, §4, §5, §6, §7, §8, §9

In test [12] the target is T12, proteins of U2OS cell lysate (Homo sapiens, UniProt P62195).
T12 construct: Proteins enriched by c-ponatinib from U2OS cell lysate; endogenous in cells; host or cells: U2OS cell lysate
As to the method:
as §1, §2, §3, §4, §5, §6, §7, §8, §9

For test [13], the target named is T13, proteins of U2OS cell lysate (Homo sapiens, UniProt P48643).
T13 construct: Proteins enriched by c-ponatinib from U2OS cell lysate; endogenous in cells; host or cells: U2OS cell lysate
The procedure: as §1, §2, §3, §4, §5, §6, §7, §8, §9

For test [14], the target named is T14, proteins of U2OS cell lysate (Homo sapiens, UniProt P53999).
T14 construct: Proteins enriched by c-ponatinib from U2OS cell lysate; endogenous in cells; host or cells: U2OS cell lysate
The procedure:
as §1, §2, §3, §4, §5, §6, §7, §8, §9

Test [15] addresses T15, proteins of U2OS cell lysate (Homo sapiens, UniProt Q92598).
T15 construct: Proteins enriched by c-ponatinib from U2OS cell lysate; endogenous in cells; host or cells: U2OS cell lysate
The procedure:
as §1, §2, §3, §4, §5, §6, §7, §8, §9

Test [16] deals with T16, proteins of U2OS cell lysate (Homo sapiens, UniProt O95816).
T16 construct: Proteins enriched by c-ponatinib from U2OS cell lysate; endogenous in cells; host or cells: U2OS cell lysate
As to the method: as §1, §2, §3, §4, §5, §6, §7, §8, §9

In test [17] the target is T17, proteins of U2OS cell lysate (Homo sapiens, UniProt P04049).
T17 construct: Proteins enriched by c-ponatinib from U2OS cell lysate; endogenous in cells; host or cells: U2OS cell lysate
The procedure: as §1, §2, §3, §4, §5, §6, §7, §8, §9

For test [18], the target named is T18, proteins of U2OS cell lysate (Homo sapiens, UniProt Q9NVA2).
T18 construct: Proteins enriched by c-ponatinib from U2OS cell lysate; endogenous in cells; host or cells: U2OS cell lysate
The procedure:
as §1, §2, §3, §4, §5, §6, §7, §8, §9

In test [19] the target is T19, proteins of U2OS cell lysate (Homo sapiens, UniProt O75947).
T19 construct: Proteins enriched by c-ponatinib from U2OS cell lysate; endogenous in cells; host or cells: U2OS cell lysate
The procedure:
as §1, §2, §3, §4, §5, §6, §7, §8, §9

The results in this text go back to article PMC6120666 (The EMBO Journal, 2018).

Each structure is given as a SMILES string.

T5 sequence (Q9UQ35 whole entry): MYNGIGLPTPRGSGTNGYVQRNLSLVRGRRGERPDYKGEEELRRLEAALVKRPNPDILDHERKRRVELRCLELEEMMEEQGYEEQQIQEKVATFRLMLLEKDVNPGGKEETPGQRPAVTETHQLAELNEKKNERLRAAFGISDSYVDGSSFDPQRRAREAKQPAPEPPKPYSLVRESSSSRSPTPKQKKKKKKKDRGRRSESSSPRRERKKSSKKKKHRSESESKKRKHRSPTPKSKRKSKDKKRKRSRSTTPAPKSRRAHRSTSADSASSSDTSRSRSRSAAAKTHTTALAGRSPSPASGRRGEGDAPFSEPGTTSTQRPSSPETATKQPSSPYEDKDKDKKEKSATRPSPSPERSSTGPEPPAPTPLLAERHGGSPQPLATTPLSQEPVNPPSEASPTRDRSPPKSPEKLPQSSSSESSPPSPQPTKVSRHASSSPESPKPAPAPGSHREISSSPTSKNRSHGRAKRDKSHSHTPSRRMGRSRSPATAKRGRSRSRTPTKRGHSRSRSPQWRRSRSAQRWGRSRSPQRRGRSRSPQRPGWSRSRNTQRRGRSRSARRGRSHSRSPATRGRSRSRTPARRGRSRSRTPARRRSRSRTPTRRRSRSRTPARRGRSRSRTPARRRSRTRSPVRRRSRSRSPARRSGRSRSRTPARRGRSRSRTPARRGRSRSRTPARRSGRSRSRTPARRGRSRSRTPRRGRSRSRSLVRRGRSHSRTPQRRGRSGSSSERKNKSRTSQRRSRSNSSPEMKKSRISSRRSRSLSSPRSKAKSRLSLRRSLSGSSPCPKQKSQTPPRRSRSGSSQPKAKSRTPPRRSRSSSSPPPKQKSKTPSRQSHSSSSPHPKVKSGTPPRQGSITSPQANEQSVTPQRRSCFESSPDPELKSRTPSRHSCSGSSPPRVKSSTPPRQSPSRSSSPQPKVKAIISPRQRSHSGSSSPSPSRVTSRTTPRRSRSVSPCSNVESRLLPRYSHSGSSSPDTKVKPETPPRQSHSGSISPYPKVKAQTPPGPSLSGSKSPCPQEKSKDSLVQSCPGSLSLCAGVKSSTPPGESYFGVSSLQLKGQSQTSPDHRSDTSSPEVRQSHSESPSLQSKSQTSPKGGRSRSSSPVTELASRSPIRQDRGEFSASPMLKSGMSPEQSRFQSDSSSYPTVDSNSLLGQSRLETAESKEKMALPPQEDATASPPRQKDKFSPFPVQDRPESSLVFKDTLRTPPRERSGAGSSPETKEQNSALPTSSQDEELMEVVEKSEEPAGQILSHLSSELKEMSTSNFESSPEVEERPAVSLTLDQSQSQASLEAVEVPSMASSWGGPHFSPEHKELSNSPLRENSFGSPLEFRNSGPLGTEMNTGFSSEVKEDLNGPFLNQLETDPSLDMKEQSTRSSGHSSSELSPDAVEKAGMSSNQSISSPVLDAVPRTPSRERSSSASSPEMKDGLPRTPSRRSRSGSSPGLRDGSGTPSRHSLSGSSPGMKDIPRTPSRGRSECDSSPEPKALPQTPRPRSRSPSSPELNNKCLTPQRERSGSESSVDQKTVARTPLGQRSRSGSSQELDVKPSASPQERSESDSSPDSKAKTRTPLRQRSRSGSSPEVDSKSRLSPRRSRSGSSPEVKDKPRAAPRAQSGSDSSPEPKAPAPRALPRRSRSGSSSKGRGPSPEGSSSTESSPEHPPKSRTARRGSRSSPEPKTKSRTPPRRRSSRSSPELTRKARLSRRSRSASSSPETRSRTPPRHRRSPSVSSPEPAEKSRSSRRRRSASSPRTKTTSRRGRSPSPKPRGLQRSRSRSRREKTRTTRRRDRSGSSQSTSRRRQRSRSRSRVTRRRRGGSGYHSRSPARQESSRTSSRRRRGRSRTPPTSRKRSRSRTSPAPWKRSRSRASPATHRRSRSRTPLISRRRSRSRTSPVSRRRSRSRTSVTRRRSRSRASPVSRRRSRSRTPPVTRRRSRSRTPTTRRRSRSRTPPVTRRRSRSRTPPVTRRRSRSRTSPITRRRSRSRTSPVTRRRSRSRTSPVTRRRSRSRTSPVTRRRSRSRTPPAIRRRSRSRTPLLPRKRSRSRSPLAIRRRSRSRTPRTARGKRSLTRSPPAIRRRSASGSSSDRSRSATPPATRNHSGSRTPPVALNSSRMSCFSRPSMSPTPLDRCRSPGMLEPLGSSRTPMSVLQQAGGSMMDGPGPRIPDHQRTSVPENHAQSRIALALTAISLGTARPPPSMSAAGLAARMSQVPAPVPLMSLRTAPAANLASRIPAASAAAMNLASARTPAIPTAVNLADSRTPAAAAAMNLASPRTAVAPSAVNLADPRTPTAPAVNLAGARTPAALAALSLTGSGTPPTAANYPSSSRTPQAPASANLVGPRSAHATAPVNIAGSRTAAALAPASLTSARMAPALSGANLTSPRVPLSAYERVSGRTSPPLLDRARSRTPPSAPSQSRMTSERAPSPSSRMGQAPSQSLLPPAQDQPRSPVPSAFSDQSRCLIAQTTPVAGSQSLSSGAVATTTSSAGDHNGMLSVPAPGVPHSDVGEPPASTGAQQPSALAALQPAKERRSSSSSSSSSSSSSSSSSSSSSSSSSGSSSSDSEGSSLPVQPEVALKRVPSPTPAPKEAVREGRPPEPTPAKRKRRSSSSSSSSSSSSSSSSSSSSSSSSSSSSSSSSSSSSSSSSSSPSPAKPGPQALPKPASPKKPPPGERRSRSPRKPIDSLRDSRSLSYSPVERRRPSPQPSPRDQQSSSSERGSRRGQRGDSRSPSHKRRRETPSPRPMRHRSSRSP
T7 sequence (Q9UBN7 whole entry): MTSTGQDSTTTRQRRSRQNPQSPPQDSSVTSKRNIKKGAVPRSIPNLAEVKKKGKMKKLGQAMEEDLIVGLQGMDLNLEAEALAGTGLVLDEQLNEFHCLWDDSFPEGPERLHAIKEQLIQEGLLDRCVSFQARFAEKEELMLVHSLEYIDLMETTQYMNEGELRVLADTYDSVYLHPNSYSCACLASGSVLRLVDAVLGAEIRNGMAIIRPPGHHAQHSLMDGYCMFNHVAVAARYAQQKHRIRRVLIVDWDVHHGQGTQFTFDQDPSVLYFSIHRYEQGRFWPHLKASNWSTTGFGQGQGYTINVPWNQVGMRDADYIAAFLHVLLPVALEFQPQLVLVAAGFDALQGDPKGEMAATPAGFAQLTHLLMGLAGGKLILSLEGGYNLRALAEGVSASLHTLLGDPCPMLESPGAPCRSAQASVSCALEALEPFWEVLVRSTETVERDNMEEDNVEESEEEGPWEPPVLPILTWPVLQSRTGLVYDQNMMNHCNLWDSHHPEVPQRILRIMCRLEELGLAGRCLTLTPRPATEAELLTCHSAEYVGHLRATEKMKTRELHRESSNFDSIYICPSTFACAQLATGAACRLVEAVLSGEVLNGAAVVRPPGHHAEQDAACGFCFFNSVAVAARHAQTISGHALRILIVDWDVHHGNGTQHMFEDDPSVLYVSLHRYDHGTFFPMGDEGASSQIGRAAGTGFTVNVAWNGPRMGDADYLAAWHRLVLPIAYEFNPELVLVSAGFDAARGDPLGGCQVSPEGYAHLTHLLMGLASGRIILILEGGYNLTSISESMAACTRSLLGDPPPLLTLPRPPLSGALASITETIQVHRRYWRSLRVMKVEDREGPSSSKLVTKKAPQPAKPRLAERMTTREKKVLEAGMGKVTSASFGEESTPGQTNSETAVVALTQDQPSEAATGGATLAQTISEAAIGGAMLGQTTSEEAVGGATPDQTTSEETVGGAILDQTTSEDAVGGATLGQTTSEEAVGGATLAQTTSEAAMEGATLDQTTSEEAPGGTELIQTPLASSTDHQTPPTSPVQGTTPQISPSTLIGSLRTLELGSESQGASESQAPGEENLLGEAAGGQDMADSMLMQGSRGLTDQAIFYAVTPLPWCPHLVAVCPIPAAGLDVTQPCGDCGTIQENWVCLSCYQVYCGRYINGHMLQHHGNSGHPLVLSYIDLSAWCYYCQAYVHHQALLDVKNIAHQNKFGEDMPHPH
T12 sequence (P62195 whole entry): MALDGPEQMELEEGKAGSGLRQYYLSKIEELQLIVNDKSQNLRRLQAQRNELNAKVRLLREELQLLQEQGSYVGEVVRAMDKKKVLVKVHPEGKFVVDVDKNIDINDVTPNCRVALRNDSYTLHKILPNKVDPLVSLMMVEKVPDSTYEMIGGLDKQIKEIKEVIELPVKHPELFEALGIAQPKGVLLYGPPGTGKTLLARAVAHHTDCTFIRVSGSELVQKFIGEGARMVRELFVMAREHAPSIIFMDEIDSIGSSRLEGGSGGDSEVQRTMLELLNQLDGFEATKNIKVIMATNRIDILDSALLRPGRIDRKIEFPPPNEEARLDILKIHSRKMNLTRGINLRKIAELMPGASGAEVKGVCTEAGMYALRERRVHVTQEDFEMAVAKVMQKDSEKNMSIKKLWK
T17 sequence (P04049 whole entry): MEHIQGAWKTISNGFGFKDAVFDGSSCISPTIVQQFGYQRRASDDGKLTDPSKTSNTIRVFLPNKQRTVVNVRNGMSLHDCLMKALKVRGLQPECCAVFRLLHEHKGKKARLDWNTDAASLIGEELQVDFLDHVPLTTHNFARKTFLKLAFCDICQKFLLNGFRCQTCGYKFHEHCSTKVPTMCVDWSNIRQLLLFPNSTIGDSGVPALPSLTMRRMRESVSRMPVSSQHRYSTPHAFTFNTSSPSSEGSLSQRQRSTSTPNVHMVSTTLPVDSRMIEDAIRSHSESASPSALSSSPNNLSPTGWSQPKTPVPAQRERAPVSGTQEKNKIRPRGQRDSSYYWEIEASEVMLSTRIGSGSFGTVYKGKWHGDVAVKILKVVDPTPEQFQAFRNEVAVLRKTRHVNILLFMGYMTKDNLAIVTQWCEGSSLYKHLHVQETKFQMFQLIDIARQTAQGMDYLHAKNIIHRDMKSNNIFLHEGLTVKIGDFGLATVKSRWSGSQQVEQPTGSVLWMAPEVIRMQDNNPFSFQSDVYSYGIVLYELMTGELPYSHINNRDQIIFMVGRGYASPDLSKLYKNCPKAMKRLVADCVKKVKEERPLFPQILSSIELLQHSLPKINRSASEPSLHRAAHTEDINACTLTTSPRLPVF

Consider `Cc1ccc(C(=O)Nc2ccc(CN3CCN(C)CC3)c(C(F)(F)F)c2)cc1C#Cc1cnc2cccnn12` [PON], for which the “Average LFQ PON_WT” value is reported as 21.8552 in test [1] (PSMD1, 26S proteasome non-ATPase regulatory subunit 1); 21.5548 in [2] (MARCKSL1, MARCKS-related protein); 22.2484 in test [3] (RUVBL2, RuvB-like 2); 22.0335 in [4] (IMMT, Mitochondrial inner membrane protein); 21.862 in test [5] (SRRM2, Serine/arginine repetitive matrix protein 2); 21.6093 in test [6] (DHCR7, 7-dehydrocholesterol reductase). In addition, the “Average LFQ PON_WT” value was found to be 22.8295 in [7] (HDAC6, Histone deacetylase 6); 22.3393 in [8] (ACTN1, Alpha-actinin-1); 21.9967 in test [9] (EIF3C;EIF3CL, Eukaryotic translation initiation factor 3 subunit C); 22.3008 in [10] (PDGFRB, Platelet-derived growth factor receptor beta); 23.0608 in test [11] (ATP5D, ATP synthase subunit delta, mitochondrial); 22.2388 in test [12] (PSMC5, 26S protease regulatory subunit 8). The “Average LFQ PON_WT” value in [13] (CCT5, T-complex protein 1 subunit epsilon) turned out to be 22.2687; in [14] (SUB1, Activated RNA polymerase II transcriptional coactivator p15) it was 22.9694; in [15] (HSPH1, Heat shock protein 105 kDa), 22.355; in [16] (BAG2, BAG family molecular chaperone regulator 2), 22.6462; in test [17] (RAF1, RAF proto-oncogene serine/threonine-protein kinase), 21.5684; in test [18] (SEPT11, Septin-11), 21.5746. For the same compound, the “Average LFQ PON_WT” value in test [19] (ATP5H, ATP synthase subunit d, mitochondrial) was found to be 23.183.
As to `Cc1ccc(C(=O)Nc2ccc(CN3CCN(CCCN)CC3)c(C(F)(F)F)c2)cc1C#Cc1cnc2cccnn12` [c-ponatinib, reference compound], the “Average LFQ intensity” value is listed as 21.8552 in [1] (captured protein PSMD1, Rank 199); 21.5548 in test [2] (captured protein MARCKSL1, Rank 225); 22.2484 in test [3] (captured protein RUVBL2, Rank 173); 22.0335 in test [4] (captured protein IMMT, Rank 188); 21.862 in test [5] (captured protein SRRM2, Rank 197); 21.6093 in [6] (captured protein DHCR7, Rank 220). For the same compound, the “Average LFQ intensity” value in test [7] (captured protein HDAC6, Rank 137) was found to be 22.8295; in test [8] (captured protein ACTN1, Rank 166) it was 22.3393; in test [9] (captured protein EIF3C;EIF3CL, Rank 191) it was 21.9967; in test [10] (captured protein PDGFRB, Rank 168), 22.3008; in [11] (captured protein ATP5D, Rank 121), 23.0608; in test [12] (captured protein PSMC5, Rank 176) it was 22.2388. The “Average LFQ intensity” value in [13] (captured protein CCT5, Rank 171) was found to be 22.2687; in [14] (captured protein SUB1, Rank 126), 22.9694; in test [15] (captured protein HSPH1, Rank 164), 22.3551; in [16] (captured protein BAG2, Rank 152) it was 22.6462; in [17] (captured protein RAF1, Rank 223), 21.5685; in [18] (captured protein 2011-09-01 (Septin-11), Rank 222) it was 21.5746. The “Average LFQ intensity” value in test [19] (captured protein ATP5H, Rank 115) was 23.183.
